Source: US11339136B2 (Novartis AG, priority 2016, dated 2022)

Target: T1, hNLRP3 (Homo sapiens, UniProt Q96P20)
T1 construct: THP-1 cells were purchased from the American Type Culture Collection; host or cells: THP-1 cells, PMA-differentiated
Assay: IL-1β production in PMA-differentiated THP-1 cells stimulated with gramicidin
Format: cell-based
Details: gramicidin 5 μM, IL-1β in supernatant, Table 2
Description: Bioassay: IL-1β Production in PMA-Differentiated THP-1 Cells Stimulated with Gramicidin. Procedure 1:
Cell culture—THP-1 cells were purchased from the American Type Culture Collection and sub-cultured according to instructions from the supplier. Prior to experiments, cells were cultured in RPMI 1640 containing 10% heat inactivated FBS, penicillin (100 units/ml) and streptomycin (100 μg/ml), and maintained in log phase prior to experimental setup. Prior to the experiment THP-1 were treated with PMA (Phorbol 12-myristate 13-acetate) (10 μg/ml) for 24 hours. The day of the experiment the media was removed and attaching cells were treated with trypsin for 2 minutes, cells were then collected, washed with PBS (phosphate buffer saline), spin down, resuspended in 2% heat inactivated FBS with RPMI at a concentration of 1×10^6 cells/ml, and 100 ul was plated in a 96 well plate. Cells were incubated with compounds for 1 hours and then stimulated with Gramicidin (5 μM) (Enzo) for 2 hours. Cell free supernatant was collected and the production of IL-1β was evaluated by ELISA. Compounds were dissolved in dimethyl sulfoxide (DMSO) and added to the culture medium to achieve desired concentration (e.g. 100, 30, 10, 3, 1, 0.3 or 0.1 μM). A vehicle only control was run concurrently with each experiment. Final DMSO concentration was 1%.
THP-1 cells were purchased from the American Type Culture Collection and sub-cultured according to instructions from the supplier. Prior to experiments, cells were cultured in complete RPMI 1640 (containing 10% heat inactivated FBS, penicillin (100 units/ml) and streptomycin (100 μg/ml)), and maintained in log phase prior to experimental setup. Prior to the experiment THP-1 were treated with PMA (Phorbol 12-myristate 13-acetate) (20 ng/ml) for 16-18 hours. On the day of the experiment the media was removed and adherent cells were detached with trypsin for 5 minutes. Cells were then harvested, washed with complete RPMI 1640, spun down, resuspended in RPMI 1640 (containing 2% heat inactivated FBS, penicillin (100 units/ml) and streptomycin (100 μg/ml). The cells were plated in a 384-well plate at a density of 50,000 cells/well (final assay volume 50 μl). Compounds were dissolved in dimethyl sulfoxide (DMSO) and added to the culture medium to achieve desired concentration (e.g. 100, 33, 11, 3.7, 1.2, 0.41, 0.14, 0.046, 0.015, 0.0051, 0.0017 μM). Cells were incubated with compounds for 1 hour and then stimulated with gramicidin (5 μM) (Enzo) for 2 hours. Cell free supernatant was collected and the production of IL-1β was evaluated by HTRF (cisbio). A vehicle only control was run concurrently with each experiment. Final DMSO concentration was 0.38%.

T1 sequence (Q96P20 whole entry): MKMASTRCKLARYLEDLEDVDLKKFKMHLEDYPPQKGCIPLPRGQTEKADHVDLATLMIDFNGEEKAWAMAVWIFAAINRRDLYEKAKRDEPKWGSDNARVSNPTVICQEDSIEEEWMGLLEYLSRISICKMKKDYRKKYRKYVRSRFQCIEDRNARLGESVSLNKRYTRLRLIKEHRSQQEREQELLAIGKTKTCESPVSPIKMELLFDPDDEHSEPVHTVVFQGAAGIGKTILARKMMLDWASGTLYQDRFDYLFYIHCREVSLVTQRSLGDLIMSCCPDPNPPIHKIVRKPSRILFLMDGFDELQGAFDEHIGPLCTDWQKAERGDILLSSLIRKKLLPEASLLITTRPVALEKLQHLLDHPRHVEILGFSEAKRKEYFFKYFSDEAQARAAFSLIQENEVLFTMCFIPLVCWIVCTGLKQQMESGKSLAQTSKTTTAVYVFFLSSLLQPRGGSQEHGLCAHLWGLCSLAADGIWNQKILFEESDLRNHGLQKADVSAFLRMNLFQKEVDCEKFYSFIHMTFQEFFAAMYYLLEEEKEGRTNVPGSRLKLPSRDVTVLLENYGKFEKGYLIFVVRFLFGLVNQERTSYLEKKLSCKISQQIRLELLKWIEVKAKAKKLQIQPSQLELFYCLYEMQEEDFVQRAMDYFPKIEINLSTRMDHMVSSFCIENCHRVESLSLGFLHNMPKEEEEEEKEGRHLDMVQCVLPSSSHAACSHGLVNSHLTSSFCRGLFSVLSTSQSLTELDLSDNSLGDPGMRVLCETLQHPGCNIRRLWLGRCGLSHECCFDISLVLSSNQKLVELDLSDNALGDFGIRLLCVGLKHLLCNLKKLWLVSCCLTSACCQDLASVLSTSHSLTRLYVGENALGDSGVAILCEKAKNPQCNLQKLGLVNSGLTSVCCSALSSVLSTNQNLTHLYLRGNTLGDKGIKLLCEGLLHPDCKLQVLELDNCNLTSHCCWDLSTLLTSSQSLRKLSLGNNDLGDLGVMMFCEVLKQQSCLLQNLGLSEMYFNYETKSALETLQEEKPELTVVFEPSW

`O=C(Nc1c2c(c(Cl)c3c1CCC3)CCC2)NS(=O)(=O)c1cc(C2(O)CC2)cs1` [Compound 210, N-(8-chloro-1,2,3,5,6,7-hexahydros-indacen-4-ylcarbamoyl)-4-(1-hydroxycyclo-propyl)thiophene-2-sulfonamide] and `N#Cc1c2c(c(NC(=O)NS(=O)(=O)c3cc(C4(O)CC4)cs3)c3c1CCC3)CCC2` [Compound 223, N-(8-cyano-1,2,3,5,6,7-hexahydros-indacen-4-ylcarbamoyl)-4-(1-hydroxycyclo-propyl)thiophene-2-sulfonamide] cannot be ordered by IC50: under 1000 nM for the first, under 1000 nM for the second.

`CC(C)c1cc(F)cc(C(C)C)c1NC(=O)NS(=O)(=O)c1cc(C(C)(C)O)cs1` [Compound 211, N-(4-fluoro-2,6-diisopropylphenyl-carbamoyl)-4-(2-hydroxypropan-2-yl)thiophene-2-sulfonamide] and `CC(C)c1cc(C#N)cc(C(C)C)c1NC(=O)NS(=O)(=O)c1cc(C(C)(C)O)cs1` [Compound 217, N-(4-cyano-2,6-diisopropylphenyl-carbamoyl)-4-(2-hydroxypropan-2-yl)thiophene-2-sulfonamide] cannot be ordered by IC50: under 1000 nM for the first, under 1000 nM for the second.

`CC(C)c1ccc(F)c(C(C)C)c1NC(=O)NS(=O)(=O)c1cc(C2(O)CC2)co1` [Compound 212] and `CC(C)c1ccc(F)c(C(C)C)c1NC(=O)NS(=O)(=O)c1cc(C2(O)CC2)cs1` [Compound 218, N-(3-fluoro-2,6-diisopropylphenyl-carbamoyl)-4-(1-hydroxycyclo-propyl)thiophene-2-sulfonamide] cannot be ordered by IC50: under 1000 nM for the first, under 1000 nM for the second.

First: CC(C)c1ccc(F)c(C(C)C)c1NC(=O)NS(=O)(=O)c1ncc(C(C)(C)O)s1 [Compound 213, N-(3-fluoro-2,6-diisopropylphenyl-carbamoyl)-5-(2-hydroxypropan-2-yl)thiazole-2-sulfonamide]
Second: CC(C)c1ccc(C#N)c(C(C)C)c1NC(=O)NS(=O)(=O)c1ncc(C(C)(C)O)s1 [Compound 263, N-(3-cyano-2,6-diisopropylphenylcarbamoyl)-5-(2-hydroxypropan-2-yl) thiazole-2-sulfonamide]
The IC50 of the first is lower: under 1000 nM for the first, 1000 to 5000 nM for the second. The first is the more potent here.

`O=C(Nc1c2c(cc3c1CCC3)CCC2)NS(=O)(=O)c1cc(C2(O)CC2)cs1` [Compound 216] and `O=C(Nc1c2c(cc3c1CCC3)CCC2)NS(=O)(=O)c1cc(C2(O)CC2)co1` [Compound 247, 1-(1,2,3,5,6,7-hexahydro-s-indacen-4-yl)-3-[4-(1-hydroxycyclopropyl)furan-2-sulfonyl]urea] cannot be ordered by IC50: under 1000 nM for the first, under 1000 nM for the second.

`CC(C)c1cc(Cl)cc(C(C)C)c1NC(=O)NS(=O)(=O)c1ncc(C(C)(C)O)s1` [Compound 219, N-(4-chloro-2,6-diisopropylphenyl-carbamoyl)-5-(2-hydroxypropan-2-yl)thiazole-2-sulfonamide] and `CC(C)c1cc(C#N)cc(C(C)C)c1NC(=O)NS(=O)(=O)c1ncc(C(C)(C)O)s1` [Compound 226, N-(4-cyano-2,6-diisopropylphenyl-carbamoyl)-5-(2-hydroxypropan-2-yl)thiazole-2-sulfonamide] cannot be ordered by IC50: under 1000 nM for the first, under 1000 nM for the second.

First: CC(C)(O)c1cnc(S(=O)(=O)NC(=O)Nc2c3c(c(C#N)c4c2CCC4)CCC3)s1 [Compound 220, N-(8-cyano-1,2,3,5,6,7-hexahydros-indacen-4-ylcarbamoyl)-5-(2-hydroxypropan-2-yl)thiazole-2-sulfonamide]
Second: CC(C)(O)c1cnc(S(=O)(=O)NC(=O)Nc2c3c(c(Cl)c4c2CCC4)CCC3)s1 [Compound 221, N-(8-chloro-1,2,3,5,6,7-hexahydros-indacen-4-ylcarbamoyl)-5-(2-hydroxypropan-2-yl)thiazole-2-sulfonamide]
The IC50 of the first is higher: 1000 to 5000 nM for the first, under 1000 nM for the second.

`CC(C)(O)c1csc(S(=O)(=O)NC(=O)Nc2c3c(c(C#N)c4c2CCC4)CCC3)c1` [Compound 224, N-(8-cyano-1,2,3,5,6,7-hexahydros-indacen-4-ylcarbamoyl)-4-(2-hydroxypropan-2-yl)thiophene-2-sulfonamide] and `CC(C)(O)c1csc(S(=O)(=O)NC(=O)Nc2c3c(c(Cl)c4c2CCC4)CCC3)c1` [Compound 232, N-(8-chloro-1,2,3,5,6,7-hexahydros-indacen-4-ylcarbamoyl)-4-(2-hydroxypropan-2-yl)thiophene-2-sulfonamide] cannot be ordered by IC50: under 1000 nM for the first, under 1000 nM for the second.

`CC(C)c1cccc(C(C)C)c1NC(=O)NS(=O)(=O)c1ncc(C(C)(C)O)s1` [Compound 227, N-(2,6-diisopropylphenyl-carbamoyl)-5-(2-hydroxypropan-2-yl)thiazole-2-sulfonamide] and `CC(C)c1cc(F)cc(C(C)C)c1NC(=O)NS(=O)(=O)c1ccc(C(C)(C)O)s1` [Compound 257] cannot be ordered by IC50: under 1000 nM for the first, under 1000 nM for the second.

First: CC(C)c1ccc(F)c(C(C)C)c1NC(=O)NS(=O)(=O)c1cc(C(C)(C)O)cs1 [Compound 228, N-(3-fluoro-2,6-diisopropylphenyl-carbamoyl)-4-(2-hydroxypropan-2-yl)thiophene-2-sulfonamide]
Second: CC(C)c1ccc(C#N)c(C(C)C)c1NC(=O)NS(=O)(=O)c1cc(C(C)(C)O)cs1 [Compound 262, N-(3-cyano-2,6-diisopropylphenylcarbamoyl)-4-(2-hydroxypropan-2-yl) thiophene-2-sulfonamide]
The IC50 of the first is lower: under 1000 nM for the first, 1000 to 5000 nM for the second. The first is the more potent here.

`CC(C)c1cc(Cl)cc(C(C)C)c1NC(=O)NS(=O)(=O)c1cc(C2(O)CC2)cs1` [Compound 229, N-(4-chloro-2,6-diisopropylphenyl-carbamoyl)-4-(1-hydroxycyclo-propyl)thiophene-2-sulfonamide] and `CC(C)c1cc(Cl)cc(C(C)C)c1NC(=O)NS(=O)(=O)c1cc(C2(O)CC2)co1` [Compound 236, N-(4-chloro-2,6-diisopropylphenyl-carbamoyl)-4-(1-hydroxycyclo-propyl)furan-2-sulfonamide] cannot be ordered by IC50: under 1000 nM for the first, under 1000 nM for the second.

`CC(C)c1cccc(C(C)C)c1NC(=O)NS(=O)(=O)c1cc(C2(O)CC2)cs1` [Compound 230, N-(2,6-diisopropylphenyl-carbamoyl)-4-(1-hydroxycyclo-propyl)thiophene-2-sulfonamide] and `CC(C)c1cc(C#N)cc(C(C)C)c1NC(=O)NS(=O)(=O)c1cc(C2(O)CC2)co1` [Compound 235, N-(4-cyano-2,6-diisopropylphenyl-carbamoyl)-4-(1-hydroxycyclo-propyl)furan-2-sulfonamide] cannot be ordered by IC50: under 1000 nM for the first, under 1000 nM for the second.

`CC(C)(O)c1cnc(S(=O)(=O)NC(=O)Nc2c3c(cc4c2CCC4)CCC3)s1` [Compound 233, N-(1,2,3,5,6,7-hexahydros-indacen-4-ylcarbamoyl)-5-(2-hydroxypropan-2-yl)thiazole-2-sulfonamide] and `CC(C)(O)c1cc(S(=O)(=O)NC(=O)Nc2c3c(cc4c2CCC4)CCC3)oc1Cl` [Compound 255, 5-chloro-N-(1,2,3,5,6,7-hexahydros-indacen-4-ylcarbamoyl)-4-(2-hydroxypropan-2-yl)furan-2-sulfonamide] cannot be ordered by IC50: under 1000 nM for the first, under 1000 nM for the second.

Compared with `CC(C)c1ccc(F)c(C(C)C)c1NC(=O)NS(=O)(=O)c1cc(C(C)(C)O)c(Cl)s1` [Compound 250, 5-chloro-N-(3-fluoro-2,6-diisopropylphenylcarbamoyl)-4-(2-hydroxypropan-2-yl)thiophene-2-sulfonamide], `CC(C)c1ccc(Cl)c(C(C)C)c1NC(=O)NS(=O)(=O)c1cc(C(C)(C)O)c(Cl)s1` [Compound 252, 5-chloro-N-(3-chloro-2,6-diisopropylphenylcarbamoyl)-4-(2-hydroxypropan-2-yl)thiophene-2-sulfonamide] is higher in IC50: 1000 to 5000 nM for the first, 5000 to 15000 nM for the second.

`CC(C)c1cc(C#N)cc(C(C)C)c1NC(=O)NS(=O)(=O)c1cc(C(C)(C)O)c(Cl)s1` [Compound 251, 5-chloro-N-(4-cyano-2,6-diisopropylphenyl-carbamoyl)-4-(2-hydroxypropan-2-yl)thiophene-2-sulfonamide] and `CC(C)c1cc(F)cc(C(C)C)c1NC(=O)NS(=O)(=O)c1cc(C(C)(C)O)c(Cl)s1` [Compound 253, 5-chloro-N-(4-fluoro-2,6-diisopropylphenyl-carbamoyl)-4-(2-hydroxypropan-2-yl)thiophene-2-sulfonamide] cannot be ordered by IC50: under 1000 nM for the first, under 1000 nM for the second.

First: CC(C)c1cc(Cl)cc(C(C)C)c1NC(=O)NS(=O)(=O)c1cc(C(C)(C)O)c(Cl)s1 [Compound 254, 5-chloro-N-(4-chloro-2,6-diisopropylphenyl-carbamoyl)-4-(2-hydroxypropan-2-yl)thiophene-2-sulfonamide]
Second: CC(C)c1cccc(C(C)C)c1NC(=O)NS(=O)(=O)c1ncc(C(C)(C)O)s1 [Compound 261]
The IC50 of the first is lower: under 1000 nM for the first, 1000 to 5000 nM for the second.
